These are literature values, as cited in patent publication US5628328A, “Method for measuring muscle mass” (priority 1995, dated 1997).

The conditions of this data set: Nishizawa et al.; cited from earlier work.

On to `Cn1cnc(C[C@H](N)C(=O)O)c1` [3-methylhistidine], for which the “Contribution of skin and intestine to total body pool of 3-methylhistidine” value is “up to 10%”.
